Experimental findings from PMC7115580 (European Journal of Medicinal Chemistry, 2017) are described below.

The assay deals with S31N mutant M2 channel (Influenza A virus, UniProt P0DOF5, S31N). The format is biochemical.
As for `CC1(C)N=C(N)N=C(N)N1c1ccc(Cl)cc1` [Compound 1, cycloguanil, reference compound], the “Inhibition of S31N mutant M2 channel” value is reported as “neither of the three compounds significantly inhibited”. The result for `CC1(C)N=C(N)N=C(N)N1c1cccc(C(F)(F)F)c1` [Compound 14] reads “neither of the three compounds significantly inhibited”; that for `CC1(C)N=C(N)N=C(N)N1c1ccc(Cl)c(Cl)c1` [Compound 16], “neither of the three compounds significantly inhibited”.
